Values after ≈ are worked out from the molar mass of the structure shown. Starred links: 1 amine or outer side, 2 acyl side, 3 side chain; linkers in the order of their positions; H or OH if unused. Non-standard residues stand in square brackets, D forms with d. Residues, ends and D or L forms follow the SMILES beside them. *: point of attachment. Ethylenediamine = C(CN[*:2])N[*:1]; Lauroyl = CCCCCCCCCCCC(=O)*; Decanoyl = CCCCCCCCCC(=O)*; Octanoyl = CCCCCCCC(=O)*; Hexanoyl = CCCCCC(=O)*; Ahx = NCCCCCC(=O)O
Columns and labels:
Type in all cases: cell-based
Salmonella dublin (Lane) = test: MIC, NCCLS M7-A6 broth microdilution (Table 9, no superscript)
Procedure: (§1) Cation-adjusted Mueller Hinton broth was used in the broth microdilution method. In brief, a log-phase bacterial suspension was used to inoculate wells of a 96-well plate so that the final inoculum for each well contained 5×10^5 to 1×10^6 CFU/milliliter. […] Plates were incubated overnight at 37° C. The lowest concentration of peptide that contained no visible growth as evidenced by a lack of turbidity when compared to the control (no peptide) was determined as the MIC. Unless otherwise noted, MIC values listed in Table 9 utilized this method of MIC determination.

[1] = tested on: Staphylococcus aureus ATCC 29213; test: MIC, NCCLS M7-A6 broth microdilution, cation-adjusted Mueller Hinton broth (Table 9, no superscript); conditions: ATCC 29213
Procedure: as §1

[2] = tested on: Staphylococcus epidermidis ATCC 12228; test: MIC, NCCLS M7-A6 broth microdilution (Table 9, no superscript); conditions: ATCC 12228
Procedure: as §1

[3] = tested on: Pseudomonas aeruginosa ATCC 27853; test: as above; conditions: ATCC 27853
Procedure: as §1

[4] = tested on: Escherichia coli ATCC 25922; test: as above; conditions: ATCC 25922
Procedure: as §1

Row | SMILES | MIC S. dublin (Salmonella dublin (Lane)) [µg/mL] | MIC S. aureus [1] [µg/mL] | MIC S. epidermidis [2] [µg/mL] | MIC P. aeruginosa [3] [µg/mL] | MIC E. coli [4] [µg/mL]
1 | CC[C@H](C)[C@H](NC(=O)[C@@H](NC(=O)[C@H](CC(C)C)NC(=O)[C@H](CO)NC(=O)[C@@H](NC(=O)[C@H](CCCNC(=N)N)NC(=O)[C@H](Cc1ccc(O)cc1)NC(=O)[C@H](CC(=O)O)NC(=O)[C@H](CCCNC(=N)N)NC(C)=O)[C@@H](C)O)[C@@H](C)O)C(=O)N[C@H](C(=O)N[C@@H](CCC(N)=O)C(=O)N[C@@H](CCCCN)C(=O)NCCCCCC(=O)N[C@H](C(=O)N[C@@H](CCCNC(=N)N)C(=O)N[C@H](C(=O)N[C@@H](CO)C(=O)N[C@@H](CCCNC(=N)N)C(=O)N[C@H](C(=O)NCC(=O)N[C@@H](CCCNC(=N)N)C(=O)N[C@@H](CO)C(=O)N[C@@H](CCCNC(=N)N)C(=O)N[C@@H](Cc1c[nH]c2ccccc12)C(=O)N[C@@H](CCCNC(=N)N)C(=O)N[C@@H](CC(=O)O)C(=O)N[C@@H](Cc1c[nH]c2ccccc12)C(=O)N[C@@H](CO)C(=O)N[C@@H](CCCNC(=N)N)C(=O)N[C@@H](CC(N)=O)C(=O)N[C@@H](Cc1ccccc1)C(=O)N[C@@H](CCSC)C(=O)N[C@@H](CCCNC(=N)N)C(N)=O)[C@@H](C)O)C(C)C)[C@@H](C)O)C(C)C [Peptide 28, Ac-RDYRTSLTIVQKXTRVSRTGRSRWRDWSRNFMR-NH2 X = aminohexanoic acid] (Ac-RDYRTSLTIVQK[Ahx]TRVSRTGRSRWRDWSRNFMR-NH2) | >64 | >64 | – | – | –
2 | CSCC[C@@H](NC(=O)[C@@H](Cc1ccccc1)NC(=O)[C@@H](CC(N)=O)NC(=O)[C@@H](CCCNC(=N)N)NC(=O)[C@@H](CO)NC(=O)[C@@H](Cc1c[nH]c2ccccc12)NC(=O)[C@@H](CC(=O)O)NC(=O)[C@@H](CCCNC(=N)N)NC(=O)[C@@H](Cc1c[nH]c2ccccc12)NC(=O)[C@@H](CCCNC(=N)N)NC(=O)[C@@H](CO)NC(=O)[C@@H](CCCNC(=N)N)NC(=O)CNC(=O)[C@H](NC(=O)[C@@H](CCCNC(=N)N)NC(=O)[C@@H](CO)NC(=O)[C@H](NC(=O)[C@@H](CCCNC(=N)N)NC(=O)[C@H](NC(C)=O)[C@H](C)O)C(C)C)[C@H](C)O)C(=O)N[C@H](CCCNC(=N)N)C(=O)N[C@H](C)C(=O)N[C@H](C)C(=O)N[C@@H](CCCCNC(C)=O)C(N)=O [Peptide 84, Ac-trvsrtgrsrwrdwsrnfmraaK(Ac)-NH2] (Ac-[dT][dR][dV][dS][dR][dT]G[dR][dS][dR][dW][dR][dD][dW][dS][dR][dN][dF][dM][dR][dA][dA]K(Ac)-NH2) | – | – | 32 (≈ 10.8 µM) | >64 | >64
3 | CCCCCCCCCCCC(=O)N[C@@H](CCCNC(=N)N)C(=O)N[C@@H](CC(=O)O)C(=O)N[C@H](C(=O)N[C@@H](C)C(=O)N[C@@H](CCCNC(=N)N)C(=O)N[C@@H](CC(N)=O)C(=O)N[C@@H](Cc1ccccc1)C(N)=O)C(C)C [Peptide 107, Lauryl-RDVARNF-NH2] (Lauroyl-RDVARNF-NH2) | >64 | >64 | – | – | –
4 | CCCCCCCCCCCC(=O)N[C@@H](CO)C(=O)N[C@@H](CCCNC(=N)N)C(=O)N[C@@H](Cc1c[nH]c2ccccc12)C(=O)N[C@@H](CCCNC(=N)N)C(=O)N[C@@H](CC(=O)O)C(=O)N[C@H](C(=O)N[C@@H](C)C(=O)N[C@@H](CCCNC(=N)N)C(=O)N[C@@H](CC(N)=O)C(=O)N[C@@H](Cc1ccccc1)C(=O)N[C@@H](CCSC)C(=O)N[C@@H](CCCNC(=N)N)C(N)=O)C(C)C [Peptide 114, Lauryl-SRWRDVARNFMR-NH2] (Lauroyl-SRWRDVARNFMR-NH2) | 4 (≈ 2.25 µM) | 4 (≈ 2.25 µM) | – | – | –
5 | CCCCCCCCCC(=O)NCCNC(=O)[C@H](CCCNC(=N)N)NC(=O)[C@H](CC(C)C)NC(=O)[C@H](Cc1ccccc1)NC(=O)[C@H](CC(N)=O)NC(=O)[C@H](CCCNC(=N)N)NC(=O)[C@H](C)NC(=O)[C@@H](NC(=O)[C@H](CC(=O)O)NC(=O)[C@H](CCCNC(=N)N)NC(=O)[C@H](Cc1c[nH]c2ccccc12)NC(=O)[C@H](CCCNC(=N)N)NC(=O)[C@H](CO)NC(=O)[C@@H](N)CCCNC(=N)N)C(C)C [Peptide 170, H2N-RSRWRDVARNFLR-Ethylamidodecanyl] (H-RSRWRDVARNFLR-{Ethylenediamine-Decanoyl}; C-terminus assumed) | 2 (≈ 1.04 µM) | 2 (≈ 1.04 µM) | – | – | –
6 | CCCCCCCCCCCC(=O)NCCNC(=O)[C@H](CCCNC(=N)N)NC(=O)[C@H](CC(C)C)NC(=O)[C@H](Cc1ccccc1)NC(=O)[C@H](CC(N)=O)NC(=O)[C@H](CCCNC(=N)N)NC(=O)[C@H](C)NC(=O)[C@@H](NC(=O)[C@H](CC(=O)O)NC(=O)[C@H](CCCNC(=N)N)NC(=O)[C@H](Cc1c[nH]c2ccccc12)NC(=O)[C@H](CCCNC(=N)N)NC(=O)[C@H](CO)NC(=O)[C@@H](N)CCCNC(=N)N)C(C)C [Peptide 171, H2N-RSRWRDVARNFLR-Ethylamidolauryl] (H-RSRWRDVARNFLR-{Ethylenediamine-Lauroyl}; C-terminus assumed) | 8 (≈ 4.09 µM) | 8 (≈ 4.09 µM) | – | – | –
7 | CCCCCC(=O)NCCCC[C@H](NC(=O)[C@H](CCCNC(=N)N)NC(=O)[C@H](CCSC)NC(=O)[C@H](Cc1ccccc1)NC(=O)[C@H](CC(N)=O)NC(=O)[C@H](CCCNC(=N)N)NC(=O)[C@H](C)NC(=O)[C@@H](NC(=O)[C@H](CC(=O)O)NC(=O)[C@H](CCCNC(=N)N)NC(=O)[C@H](Cc1c[nH]c2ccccc12)NC(=O)[C@H](CCCNC(=N)N)NC(=O)[C@H](CO)NC(=O)[C@@H](N)CCCNC(=N)N)C(C)C)C(N)=O [Peptide 183, H2N-RSRWRDVARNFMRK(Hexanyl)-NH2] (H-RSRWRDVARNFMRK(Hexanoyl)-NH2) | >64 | >64 | – | – | –
8 | CCCCCC(=O)NCCCC[C@@H](NC(=O)[C@@H](CCCNC(=N)N)NC(=O)[C@@H](CC(C)C)NC(=O)[C@@H](Cc1ccccc1)NC(=O)[C@@H](CC(N)=O)NC(=O)[C@@H](CCCNC(=N)N)NC(=O)[C@@H](C)NC(=O)[C@H](NC(=O)[C@@H](CC(=O)O)NC(=O)[C@@H](CCCNC(=N)N)NC(=O)[C@@H](Cc1c[nH]c2ccccc12)NC(=O)[C@@H](CCCNC(=N)N)NC(=O)[C@@H](CO)NC(=O)[C@H](N)CCCNC(=N)N)C(C)C)C(N)=O [Peptide 192, H2N-rsrwrdvarnflrk(Hexanyl)-NH2] (H-[dR][dS][dR][dW][dR][dD][dV][dA][dR][dN][dF][dL][dR][dK](Hexanoyl)-NH2) | >64 | >64 | – | – | –
9 | CCCCCC(=O)NCCCC[C@@H](NC(=O)[C@@H](CCCNC(=N)N)NC(=O)[C@@H](CCSC)NC(=O)[C@@H](Cc1ccccc1)NC(=O)[C@@H](CC(N)=O)NC(=O)[C@@H](CCCNC(=N)N)NC(=O)[C@@H](C)NC(=O)[C@H](NC(=O)[C@@H](CC(=O)O)NC(=O)[C@@H](CCCNC(=N)N)NC(=O)[C@@H](Cc1c[nH]c2ccccc12)NC(=O)[C@@H](CCCNC(=N)N)NC(=O)[C@@H](CO)NC(=O)[C@H](N)CCCNC(=N)N)C(C)C)C(N)=O [Peptide 197, H2N-rsrwrdvarnfmrk(Hexanyl)-NH2] (H-[dR][dS][dR][dW][dR][dD][dV][dA][dR][dN][dF][dM][dR][dK](Hexanoyl)-NH2) | >64 | >64 | – | – | –
10 | CCCCCCCC(=O)N[C@@H](CCCNC(=N)N)C(=O)N[C@@H](CO)C(=O)N[C@@H](CCCNC(=N)N)C(=O)N[C@@H](Cc1c[nH]c2ccccc12)C(=O)N[C@@H](CCCNC(=N)N)C(=O)N[C@@H](CC(=O)O)C(=O)N[C@H](C(=O)N[C@@H](C)C(=O)N[C@@H](CCCNC(=N)N)C(=O)N[C@@H](CC(N)=O)C(=O)N[C@@H](Cc1ccccc1)C(=O)N[C@@H](CCSC)C(=O)N[C@@H](CCCNC(=N)N)C(N)=O)C(C)C [Peptide 203, Octyl-RSRWRDVARNFMR-NH2] (Octanoyl-RSRWRDVARNFMR-NH2) | >64 | 32 (≈ 17.1 µM) | – | – | –
11 | CCCCCCCCCCCC(=O)NCCNC(=O)C[C@H](CCCNC(=N)N)NC(=O)C[C@H](CC(C)C)NC(=O)C[C@H](Cc1ccccc1)NC(=O)C[C@H](CCCNC(=N)N)NC(=O)C[C@H](CC(N)=O)NC(=O)C[C@@H](NC(=O)C[C@H](CCCNC(=N)N)NC(=O)C[C@H](CC(=O)O)NC(=O)C[C@@H](NC(=O)C[C@H](CCCNC(=N)N)NC(=O)C[C@H](CO)NC(=O)C[C@H](Cc1c[nH]c2ccccc12)NC(=O)C[C@@H](N)CCCNC(=N)N)[C@@H](C)CC)[C@@H](C)CC [Peptide 216, H2N-RWSRIDRINRFLR-Ethylamidolauryl all amino acids are beta3] | 16 (≈ 7.29 µM) | 8 (≈ 3.64 µM) | – | – | –
12 | CCCCCCCCCCCC(=O)N[C@H](CCCNC(=N)N)C(=O)N[C@H](CC(C)C)C(=O)N[C@H](CCCNC(=N)N)C(=O)N[C@H](Cc1c[nH]c2ccccc12)C(=O)N[C@H](CCCNC(=N)N)C(=O)N[C@H](CC(C)C)C(=O)N[C@@H](C(=O)N[C@H](CC(C)C)C(=O)N[C@H](CCCNC(=N)N)C(=O)N[C@H](CC(C)C)C(=O)N[C@H](Cc1ccccc1)C(=O)N[C@H](CC(C)C)C(=O)N[C@H](CCCNC(=N)N)C(N)=O)C(C)C [Peptide 218, Lauryl-rlrwrlvlrlflr-NH2] (Lauroyl-[dR][dL][dR][dW][dR][dL][dV][dL][dR][dL][dF][dL][dR]-NH2) | >64 | >64 | – | – | –

Reference: patent US20050282755A1, “Compositions having antimicrobial activity and uses thereof” (priority 2004, published 2005)
